Experiments:
[1] = system: IL-6; experiment: IL-6 inflammatory activity in IL-1α+TNFα treated cells; assay type: cell-based; details: dose of about 10 μg
[2] = system: mice; experiment: mouse in vivo toxicity study; details: oral, 2000 mg/kg everyday for 14 days vs water control
[3] = system: Neuroligin 2 5'UTR luciferase reporter; experiment: Neuroligin 2 5'UTR firefly luciferase reporter; assay type: cell-based
Source text: (§1) Transient transfection conditions and luciferase reporter constructs—Firefly luciferase reporter plasmids containing the 5′ untranslated regions (UTRs) of the genes Neuroligin 1 and Neuroligin 2 were a kind gift from Professor Nahum Sonenberg (McGill) and used as described by Gkogkas et al, 2013. Nature, 17; 371-377.
(§2) Cells were transfected using FuGene 6 (Roche) following the manufacturer's instructions. The activities of firefly and Renilla luciferase in lysates prepared from transfected cells were measured using a commercially available Luciferase reporter assay system (Promega) and light emission was measured over a 10 sec interval using either a TECAN luminometer. For each experiment described, data was obtained from a minimum of at least 3 biological repetitions per treatment.

[4] = system: Lung Carcinoma (A549); experiment: anti-proliferative activity, wst-1, lung cancer cell line; assay type: cell-based, human
Experimental: Human tissue culture experiments—lung (A549), ovarian (OVCAR-3, SKOV), breast (MDA-MB-231) and prostate (PC-3) cancer cell lines were chosen to provide a broad profile of different cancer cell types and their response to treatment with the natural compound. Cell were seeded as a mono-layer in 96 well flat bottom Nunc tissue culture plates at a density of 10,000 cells per well and supplemented with RPMI 1640 media (Sigma Aldrich) containing 10% foetal calf serum, penicillin and streptomycin. Cells were then treated for 72 hours with a range of concentrations of MGDG either DMSO soluble, media soluble sample or the pure synthetic molecule. Four biological repetitions were tested for each dose. Activity of each treatment was then assessed using wst-1 reagent (Roche) as per the manufacturer's instructions. Data was visualised using a victor plate reader (Perkin Elmer) at a wavelength of 450 nm.

[5] = system: cancer cells; experiment: dose calculation for inhibition of growth of cancer cells; parameters: species or system human
[6] = system: Neuroligin 1 (5'UTR) luciferase reporter; experiment: Neuroligin 1 5'UTR firefly luciferase reporter; assay type: cell-based
Source text: as §1, §2

**Q.** With `CC/C=C\C/C=C\C/C=C\CCCCCCCC(=O)OC[C@H](COC1OC(CO)C(O)C(O)C1O)OC(=O)CCCCCCC/C=C\C/C=C\C/C=C\CC` (some centres unmarked) [MGDG, monogalactosyl diacylglycerol] as the molecule, how does the “reduction of IL-6 inflammatory activity” value [1] read?
**A.** ~80%

**Q.** And the “survival or weight / toxicity” value [2]?
**A.** no difference in survival or weight

**Q.** What about the “effect on Neuroligin 2 reporter activity” value [3] of the same molecule?
**A.** unaffected

**Q.** And the “anti-cancer / anti-proliferative activity” value [4]?
**A.** anti-proliferative effects

**Q.** What about the “inhibition in the growth of cancer cells” value ([5]; daily dose of approximately 11 mgs, human) of the same molecule?
**A.** 50%

**Q.** And the “inhibition in the growth of cancer cells” value ([5]; dose of approximately 5.5 mgs in a 60kg human)?
**A.** 30%

**Q.** And the “effect on Neuroligin 1 reporter” value [6]?
**A.** can be dampened

**Q.** And the “reduction in the levels of Neuroligin 1” value ([6]; 10 μM dose, luciferase reporter system)?
**A.** about 35%
